This is an account of results in ChEMBL document CHEMBL1125408 (J Med Chem, 1992).

What is called IC50 is the point on the concentration scale where inhibition reaches its midpoint. Read a high IC50 as a need for much substance. Usually Ki stands for the dissociation constant of the complex between target and ligand, obtained from inhibition or displacement. The low end stands for higher affinity, the high end for lower affinity.

Test [1] concerns the target T1, Muscarinic acetylcholine receptor M1 (Mus musculus, UniProt P12657).
T1 sequence (P12657 whole entry): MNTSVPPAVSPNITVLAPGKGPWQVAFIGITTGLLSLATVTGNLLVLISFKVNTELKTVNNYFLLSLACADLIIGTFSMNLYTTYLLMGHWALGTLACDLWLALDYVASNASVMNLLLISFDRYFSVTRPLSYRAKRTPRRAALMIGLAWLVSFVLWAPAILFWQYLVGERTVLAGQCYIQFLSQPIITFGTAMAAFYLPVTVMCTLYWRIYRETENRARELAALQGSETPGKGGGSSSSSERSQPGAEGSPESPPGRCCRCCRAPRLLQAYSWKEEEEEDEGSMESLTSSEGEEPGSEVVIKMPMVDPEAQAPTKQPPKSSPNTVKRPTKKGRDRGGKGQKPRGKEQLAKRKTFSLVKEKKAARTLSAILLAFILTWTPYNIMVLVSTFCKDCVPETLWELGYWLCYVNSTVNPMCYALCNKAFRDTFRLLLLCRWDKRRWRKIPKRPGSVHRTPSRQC
Briefly: biochemical.
Description: Compound was evaluated for the competitive inhibition of [3H]pirenzepine binding to muscarinic acetylcholine receptor M1 of mouse cerebral cortex

Test [2] is filed under the species Rattus norvegicus.
Test [3] addresses T2, Cholinesterase (Homo sapiens, UniProt P06276).
Description: The compound was evaluated for the inhibition human of Butyrylcholinesterase
In test [4] the target is T3, Acetylcholinesterase (Homo sapiens, UniProt P22303).
T3 sequence (P22303 whole entry): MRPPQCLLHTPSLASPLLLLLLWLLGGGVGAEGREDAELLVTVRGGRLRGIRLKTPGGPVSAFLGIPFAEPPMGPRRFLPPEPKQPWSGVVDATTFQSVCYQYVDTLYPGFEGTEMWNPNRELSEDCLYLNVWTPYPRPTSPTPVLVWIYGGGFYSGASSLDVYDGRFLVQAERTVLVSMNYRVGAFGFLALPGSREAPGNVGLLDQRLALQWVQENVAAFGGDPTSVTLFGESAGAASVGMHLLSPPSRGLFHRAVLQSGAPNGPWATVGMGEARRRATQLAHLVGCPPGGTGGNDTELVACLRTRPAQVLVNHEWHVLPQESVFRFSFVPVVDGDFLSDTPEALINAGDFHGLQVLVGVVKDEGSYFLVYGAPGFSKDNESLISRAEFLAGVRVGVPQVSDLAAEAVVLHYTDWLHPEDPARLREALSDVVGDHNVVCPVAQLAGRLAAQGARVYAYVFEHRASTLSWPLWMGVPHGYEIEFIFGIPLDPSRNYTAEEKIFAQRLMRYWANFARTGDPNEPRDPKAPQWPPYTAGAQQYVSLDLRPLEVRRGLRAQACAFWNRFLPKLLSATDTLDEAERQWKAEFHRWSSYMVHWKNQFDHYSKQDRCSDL
Description: The compound was evaluated for the inhibition of human Acetylcholinesterase
Test [5] deals with T2, Cholinesterase. In words: Ratio of IC50 values obtained for BChE/ AChE.
The target of test [6] is T4, Muscarinic acetylcholine receptor M2 (Mus musculus) (UniProt Q9ERZ4).
T4 sequence (whole entry): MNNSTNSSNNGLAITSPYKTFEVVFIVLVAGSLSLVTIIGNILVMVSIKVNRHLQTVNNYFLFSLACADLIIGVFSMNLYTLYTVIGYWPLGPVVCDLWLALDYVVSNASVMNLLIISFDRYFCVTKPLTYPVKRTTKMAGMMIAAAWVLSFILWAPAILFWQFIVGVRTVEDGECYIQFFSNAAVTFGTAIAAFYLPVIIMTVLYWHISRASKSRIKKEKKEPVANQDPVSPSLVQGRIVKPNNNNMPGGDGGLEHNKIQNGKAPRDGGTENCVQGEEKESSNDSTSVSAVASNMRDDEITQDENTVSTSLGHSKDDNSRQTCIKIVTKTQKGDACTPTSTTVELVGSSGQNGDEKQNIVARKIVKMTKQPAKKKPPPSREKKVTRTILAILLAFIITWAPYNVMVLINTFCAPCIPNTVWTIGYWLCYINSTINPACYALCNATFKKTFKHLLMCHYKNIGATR
Briefly: Selectivity was defined as the ratio between M2-IC50/M1-IC50.

Test [7] deals with T5, Muscarinic acetylcholine receptor M2 (Mus musculus, UniProt Q9ERZ4).
T5 sequence (Q9ERZ4 whole entry): T4 sequence (whole entry)
Briefly: biochemical.
Description: Compound was evaluated for the competitive inhibition of [3H]methylscopolamine binding to muscarinic acetylcholine receptor M2 of mouse cerebral cortex

Test [8] is filed under the species Rattus norvegicus. In words: Concentration required to potentiate the contraction of isolated rat ileum produced by 1*10e-7 M ACh by 20 percent; IA=Inactive. The format is functional.
Test [9] concerns the target T3, Acetylcholinesterase. The source holds these as a separate data set.
Description: Inhibition of human acetylcholinesterase-I
The species named for test [10] is Rattus norvegicus. Briefly: Concentration required to potentiate the contraction of isolated rat ileum produced by 1*10e-7 M ACh by 20 percent; IA= inactive. The format is functional.
Test [11] addresses T2, Cholinesterase. The source holds these as a separate data set.
Description: The compound was evaluated for the inhibition human of Butyrylcholinesterase I
Test [12] concerns the target T1, Muscarinic acetylcholine receptor M1. Briefly: biochemical. The source holds these as a separate data set.
Description: Compound was evaluated for the competitive inhibition of [3H]pirenzepine binding to Muscarinic acetylcholine receptor M1 of mouse cerebral cortex
Test [13] addresses T5, Muscarinic acetylcholine receptor M2. Briefly: biochemical. The source holds these as a separate data set.
Description: Compound was evaluated for the competitive inhibition of [3H]methylscopolamine binding to Muscarinic acetylcholine receptor M2 of mouse cerebral cortex
For test [14], the species on record is Mus musculus.
Description: Compound was evaluated for the binding affinity by displacing [3H]methylscopolamine ([3H]-NMS) from mouse cerebral cortex tissue.
The species entered for test [15] is Mus musculus. The source holds these as a separate data set.
Test [16] is described as follows: NMS/OXO-M values are calculated from the ratio of the respective apparent Ki values.

The source made the active and inactive calls. Bounds are passed on as bounds.

T2 sequence (P06276 whole entry): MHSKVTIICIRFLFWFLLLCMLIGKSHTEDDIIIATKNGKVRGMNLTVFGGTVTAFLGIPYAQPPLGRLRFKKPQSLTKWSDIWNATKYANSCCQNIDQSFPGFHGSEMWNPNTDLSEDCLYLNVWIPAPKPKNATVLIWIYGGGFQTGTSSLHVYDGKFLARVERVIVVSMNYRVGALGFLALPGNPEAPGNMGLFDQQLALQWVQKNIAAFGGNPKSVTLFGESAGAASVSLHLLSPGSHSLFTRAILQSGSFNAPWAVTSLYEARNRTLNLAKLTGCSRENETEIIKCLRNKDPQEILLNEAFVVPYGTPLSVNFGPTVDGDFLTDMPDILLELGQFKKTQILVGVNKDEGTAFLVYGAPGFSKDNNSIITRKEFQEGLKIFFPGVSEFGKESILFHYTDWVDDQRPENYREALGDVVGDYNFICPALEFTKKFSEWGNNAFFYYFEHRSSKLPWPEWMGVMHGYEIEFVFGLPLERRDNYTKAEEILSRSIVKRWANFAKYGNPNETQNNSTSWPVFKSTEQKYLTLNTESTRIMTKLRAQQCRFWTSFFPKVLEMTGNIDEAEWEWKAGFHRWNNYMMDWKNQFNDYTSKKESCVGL

Regarding `CN(C)Cc1ccc(CSCCN/C=C(/NCCSCc2ccc(CN(C)C)o2)[N+](=O)[O-])o1`, the IC50 in test [1] is 900 nM; in test [3], 1300 nM; in [4], 74 nM; in [7], 500 nM. The same compound returned an Ileal activity in test [2] of less than 0.1 µM. Also, the Ratio in test [5] came out at 18; in test [6], 0.55.

Take `CN(C)Cc1ccc(CSCCCCCCCSCc2ccc(CN(C)C)o2)o1`: the IC50 in [1] came to 410 nM; in test [3] it was 1900 nM; in test [4], 610 nM; in [7], 710 nM. In addition, the Ileal activity entry in [8] is “inactive”. Besides, the Ratio amounted to 3.1 in [5] and 1.7 in [6].

Turning to `CN(C)Cc1ccc(CSCc2cccc(CSCc3ccc(CN(C)C)o3)c2)o1`, the IC50 in test [9] stood at 1500 nM.

As for `CN(C)Cc1ccc(CSCCCCCCSCc2ccc(CN(C)C)o2)o1`, in test [10], the Ileal activity entry is “inactive”. The half-inhibitory concentration (IC50) was 2900 nM in test [11], 540 nM in [12], 740 nM in [9] and 580 nM in test [13].

As to `CN(C)Cc1ccc(CSCCCCCSCc2ccc(CN(C)C)o2)o1`, the IC50 in test [11] came to 3600 nM; in test [12], 810 nM; in test [9] it was 900 nM; in test [13] it was 520 nM. Moreover, the Ileal activity in test [2] was less than 0.1 µM.

For the compound `CN(C)Cc1ccc(CSCCCCCCCCCCSCc2ccc(CN(C)C)o2)o1`, in test [4], the IC50 was 1300 nM.

Turning to `CN(C)Cc1ccc(CSCCCSCc2ccc(CN(C)C)o2)o1`, the IC50 in test [11] was determined as 4100 nM; in [12], 1100 nM; in test [9] it was 330 nM; in test [13], 1500 nM. For the same compound, the Ileal activity in test [2] is less than 0.1 µM.

For `CN(C)Cc1ccc(CSCc2ccc(-c3ccc(CSCc4ccc(CN(C)C)o4)cc3)cc2)o1`, the IC50 was determined as 1300 nM in test [11], 680 nM in [12], 180 nM in test [9] and 1600 nM in test [13]. In test [2], this compound registered an Ileal activity of less than 0.01 µM.

Turning to `CNC(=O)Oc1ccc2c(c1)[C@]1(C)CCN(C)[C@@H]1N2C` [PHYSOSTIGMINE], the half-maximal inhibitory concentration (IC50) stood at 37000 nM in test [1] and 160000 nM in test [7]. The compound further came in with an Ileal activity in [2] of less than 0.005 µM.

For `CN(C)Cc1ccc(CSCCNc2cc(NCCSCc3ccc(CN(C)C)o3)c([N+](=O)[O-])cc2[N+](=O)[O-])o1`, the IC50 in test [1] was determined as 490 nM; in test [3] it was 25 nM; in test [4], 28 nM; in test [7] it was 590 nM. Also, the Ileal activity in test [2] is less than 0.05 µM. The Ratio in [5] amounted to 0.89.

As to `CN(C)Cc1ccc(CSCCCCSCc2ccc(CN(C)C)o2)o1`, the IC50 was 3100 nM in [11], 630 nM in test [12], 210 nM in [9] and 2200 nM in test [13]. Also, in [2], the Ileal activity is less than 1 µM. Further, the Ki in test [14] was 20000 nM; in [15], 1200 nM. For the same compound, the Ratio in test [16] was 17.

On to `CN(C)Cc1ccc(CSCCNC(=NC#N)NCCSCc2ccc(CN(C)C)o2)o1`, for which the IC50 in [11] came to 2400 nM; in [12] it was 660 nM; in test [9], 290 nM; in test [13], 470 nM. Moreover, in [2], the Ileal activity was less than 0.01 µM.

For the compound `CN(C)Cc1ccc(CSCCCCCCCCSCc2ccc(CN(C)C)o2)o1`, the IC50 in test [1] was 310 nM; in test [3], 1900 nM; in [4], 470 nM; in test [7], 540 nM. Also, the Ileal activity in [2] is less than 0.1 µM. For the same compound, the Ratio in test [5] was found to be 4; in test [6], 1.8.

With `CN(C)Cc1ccc(CSCCSCc2ccc(CN(C)C)o2)o1`, the IC50 in test [11] turned out to be 4300 nM; in test [12], 1100 nM; in [9], 500 nM; in [13] it was 1400 nM. This compound also displayed an Ileal activity in [2] of less than 0.1 µM.

For the compound `CN(C)Cc1ccc(CSCCCCCCCCCSCc2ccc(CN(C)C)o2)o1`, the IC50 stood at 560 nM in test [1], 1000 nM in test [3], 460 nM in test [4] and 400 nM in test [7]. Moreover, in test [2], the Ileal activity is less than 0.1 µM. Moreover, the Ratio was determined as 2.2 in test [5] and 0.71 in [6].

With `CN(C)Cc1ccc(CSCc2ccc(CN(C)C)o2)o1`, in test [9], it took 44000 nM to reach half-maximal inhibition (IC50).

Turning to `CN(C)Cc1ccc(CSCC/N=C/NCCSCc2ccc(CN(C)C)o2)o1`, half-maximal inhibition in [9] (IC50) was put at 3000 nM.

In turn, `CN(C)Cc1ccc(CSCCNC(=O)NCCSCc2ccc(CN(C)C)o2)o1` gave an IC50 in test [9] of 48000 nM.

`CN(C)Cc1ccc(CSCc2ccccc2CSCc2ccc(CN(C)C)o2)o1`: 9000 nM corresponded to half-maximal inhibition in test [9] (IC50).

Take `CN(C)Cc1ccc(CSCc2ccc(CSCc3ccc(CN(C)C)o3)cc2)o1`: the Ileal activity result in [10] was “inactive”. For the same compound, the half-inhibitory concentration (IC50) was 2700 nM in test [11], 540 nM in test [12], 260 nM in test [9] and 550 nM in [13].
